Reference: ChEMBL document CHEMBL1909046, “DrugMatrix in vitro pharmacology data”

Experiments:
[1] = DRUGMATRIX: beta-Lactamase enzyme inhibition (substrate: Nitrocefin); design: species or system Bacillus cereus; conditions: Not Active = under 50% inhibition at 10 µM
Endothelin-1 receptor = target: T1, Endothelin-1 receptor (Homo sapiens, UniProt P25101); assay type: cell membranes, Membrane; conditions: cho-k1; also: in other assays of this panel Not Active means under 50% inhibition at 10 µM
T1 sequence (P25101 whole entry): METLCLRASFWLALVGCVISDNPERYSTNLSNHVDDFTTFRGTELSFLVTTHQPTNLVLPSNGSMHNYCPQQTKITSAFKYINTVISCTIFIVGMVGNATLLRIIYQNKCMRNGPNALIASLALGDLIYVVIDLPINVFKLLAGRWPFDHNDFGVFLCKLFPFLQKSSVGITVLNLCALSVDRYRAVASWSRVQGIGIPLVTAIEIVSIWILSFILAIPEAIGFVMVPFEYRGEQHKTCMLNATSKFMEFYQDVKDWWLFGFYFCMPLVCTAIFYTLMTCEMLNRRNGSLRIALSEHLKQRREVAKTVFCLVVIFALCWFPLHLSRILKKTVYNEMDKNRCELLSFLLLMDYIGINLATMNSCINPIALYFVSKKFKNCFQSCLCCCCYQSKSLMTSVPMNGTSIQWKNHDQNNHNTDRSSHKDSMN

[2] = DRUGMATRIX: Glutamate, AMPA radioligand binding (ligand: [3H] AMPA); assay type: cell membranes, Rattus norvegicus, Wistar, Cerebral cortex, Membrane; conditions: Not Active = under 50% inhibition at 10 µM
[3] = DRUGMATRIX: Glutamate, NMDA, Agonism radioligand binding (ligand: [3H] CGP-39653); assay type: cell membranes, Rattus norvegicus, Wistar, Cerebral cortex, Membrane; conditions: Not Active = under 50% inhibition at 10 µM
Insulin receptor = Insulin receptor (Rattus norvegicus, UniProt P15127); assay type: cell membranes, Wistar, Liver, Membrane; also: in other assays of this panel Not Active means under 50% inhibition at 10 µM
Insulin receptor, sequence (P15127 27-759 limits assumed): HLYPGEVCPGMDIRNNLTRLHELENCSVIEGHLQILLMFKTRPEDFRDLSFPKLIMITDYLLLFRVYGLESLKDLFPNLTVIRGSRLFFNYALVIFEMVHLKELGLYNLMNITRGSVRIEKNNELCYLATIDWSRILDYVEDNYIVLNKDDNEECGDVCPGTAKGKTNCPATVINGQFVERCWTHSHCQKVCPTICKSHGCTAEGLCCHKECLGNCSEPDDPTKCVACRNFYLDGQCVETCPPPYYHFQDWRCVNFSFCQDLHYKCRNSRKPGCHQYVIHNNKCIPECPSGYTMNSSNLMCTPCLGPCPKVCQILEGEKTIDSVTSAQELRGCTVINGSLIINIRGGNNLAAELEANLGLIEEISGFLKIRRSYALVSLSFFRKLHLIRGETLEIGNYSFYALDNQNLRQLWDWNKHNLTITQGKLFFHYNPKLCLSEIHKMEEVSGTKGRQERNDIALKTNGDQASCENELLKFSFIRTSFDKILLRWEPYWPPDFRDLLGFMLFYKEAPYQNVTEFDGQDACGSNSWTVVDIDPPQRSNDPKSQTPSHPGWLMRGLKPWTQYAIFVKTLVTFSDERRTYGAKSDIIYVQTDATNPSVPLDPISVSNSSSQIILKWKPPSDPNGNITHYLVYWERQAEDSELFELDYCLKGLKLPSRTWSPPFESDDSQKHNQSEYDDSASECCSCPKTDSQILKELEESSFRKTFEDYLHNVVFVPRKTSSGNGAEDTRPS
Insulin receptor, sequence (P15127 764-1383 limits assumed): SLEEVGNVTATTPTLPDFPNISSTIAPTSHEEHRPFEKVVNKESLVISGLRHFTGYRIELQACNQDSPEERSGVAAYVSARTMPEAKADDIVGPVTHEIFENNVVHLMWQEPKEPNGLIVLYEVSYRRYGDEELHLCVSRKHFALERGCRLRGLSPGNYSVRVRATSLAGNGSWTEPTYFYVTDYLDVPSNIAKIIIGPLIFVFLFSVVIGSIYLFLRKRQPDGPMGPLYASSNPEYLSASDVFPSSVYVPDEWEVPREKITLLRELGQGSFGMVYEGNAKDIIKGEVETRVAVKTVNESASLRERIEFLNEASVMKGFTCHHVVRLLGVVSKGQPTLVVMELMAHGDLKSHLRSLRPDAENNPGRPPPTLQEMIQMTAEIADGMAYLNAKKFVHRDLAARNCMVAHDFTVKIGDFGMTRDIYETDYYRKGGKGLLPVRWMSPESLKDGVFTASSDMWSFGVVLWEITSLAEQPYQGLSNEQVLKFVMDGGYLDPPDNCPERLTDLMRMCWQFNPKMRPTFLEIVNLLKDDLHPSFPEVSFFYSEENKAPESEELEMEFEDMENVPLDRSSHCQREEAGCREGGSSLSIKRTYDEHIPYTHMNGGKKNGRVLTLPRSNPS

[4] = DRUGMATRIX: Interleukin IL-1 radioligand binding (ligand: [125I] interleukin 1beta); assay type: cell membranes, Membrane; conditions: nih3t3; Not Active = under 50% inhibition at 10 µM
[5] = DRUGMATRIX: Leukotriene, BLT (LTB4) radioligand binding (ligand: [3H]LTB4); assay type: cell membranes, Membrane; conditions: u-937; Not Active = under 50% inhibition at 10 µM
[6] = target: T2, Muscarinic acetylcholine receptor M2 (Homo sapiens, UniProt P08172); assay type: cell membranes, CHO-K1, Membrane; conditions: cho-k1; also: in other assays of this panel Not Active means under 50% inhibition at 10 µM
T2 sequence (P08172 whole entry): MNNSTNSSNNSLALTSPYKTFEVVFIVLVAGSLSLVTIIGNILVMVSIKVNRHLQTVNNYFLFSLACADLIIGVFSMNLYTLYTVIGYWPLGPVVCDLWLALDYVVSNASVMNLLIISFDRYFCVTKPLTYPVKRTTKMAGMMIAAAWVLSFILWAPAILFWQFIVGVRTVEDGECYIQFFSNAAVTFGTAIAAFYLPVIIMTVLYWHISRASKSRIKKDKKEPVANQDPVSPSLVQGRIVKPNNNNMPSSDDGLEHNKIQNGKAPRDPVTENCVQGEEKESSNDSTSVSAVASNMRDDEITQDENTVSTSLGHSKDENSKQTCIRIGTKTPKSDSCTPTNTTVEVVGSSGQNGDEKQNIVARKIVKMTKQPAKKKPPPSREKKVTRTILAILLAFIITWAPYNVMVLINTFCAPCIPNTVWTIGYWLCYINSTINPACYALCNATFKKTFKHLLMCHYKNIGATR

Caspase-1 = target: T3, Caspase-1 (Homo sapiens, UniProt P29466); design: species or system Escherichia coli;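 also: Caspase-1 enzyme inhibition assay with a peptide substrate; in other assays of this panel Not Active means under 50% inhibition at 10 µM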
T3 sequence (P29466 whole entry): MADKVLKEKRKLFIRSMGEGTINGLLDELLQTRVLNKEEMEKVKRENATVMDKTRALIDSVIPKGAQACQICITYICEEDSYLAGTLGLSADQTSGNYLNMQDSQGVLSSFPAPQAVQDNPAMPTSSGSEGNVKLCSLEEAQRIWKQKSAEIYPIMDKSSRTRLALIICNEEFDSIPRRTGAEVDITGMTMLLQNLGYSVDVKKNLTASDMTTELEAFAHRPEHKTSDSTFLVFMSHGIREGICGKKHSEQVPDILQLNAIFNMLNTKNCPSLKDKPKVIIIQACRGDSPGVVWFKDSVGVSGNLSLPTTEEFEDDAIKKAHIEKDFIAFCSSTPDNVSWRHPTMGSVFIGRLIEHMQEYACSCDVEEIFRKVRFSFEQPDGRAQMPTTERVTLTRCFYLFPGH

[7] = target: Mitogen-activated protein kinase 1 (Homo sapiens, UniProt P28482); test: DRUGMATRIX: Protein Serine/Threonine Kinase, ERK2 enzyme inhibition (substrate: Myelin Basic Protein); design: species or system Escherichia coli; conditions: Not Active = under 50% inhibition at 10 µM
Mitogen-activated protein kinase 1, sequence (P28482 whole entry): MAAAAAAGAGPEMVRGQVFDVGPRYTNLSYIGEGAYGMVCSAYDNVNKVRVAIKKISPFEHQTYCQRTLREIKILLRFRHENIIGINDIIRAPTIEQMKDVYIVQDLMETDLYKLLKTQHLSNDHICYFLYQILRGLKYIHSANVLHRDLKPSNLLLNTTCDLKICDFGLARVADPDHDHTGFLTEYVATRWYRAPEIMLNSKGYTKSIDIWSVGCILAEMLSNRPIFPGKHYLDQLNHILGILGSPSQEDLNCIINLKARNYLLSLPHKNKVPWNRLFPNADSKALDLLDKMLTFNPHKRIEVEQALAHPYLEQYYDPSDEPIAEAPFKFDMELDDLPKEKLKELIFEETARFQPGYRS

Cytochrome P450 2C9 = Cytochrome P450 2C9 (Homo sapiens, UniProt P11712); conditions: bti-tn-5b1-4; also: in other assays of this panel Not Active means under 50% inhibition at 10 µM
Cytochrome P450 2C9, sequence (P11712 whole entry): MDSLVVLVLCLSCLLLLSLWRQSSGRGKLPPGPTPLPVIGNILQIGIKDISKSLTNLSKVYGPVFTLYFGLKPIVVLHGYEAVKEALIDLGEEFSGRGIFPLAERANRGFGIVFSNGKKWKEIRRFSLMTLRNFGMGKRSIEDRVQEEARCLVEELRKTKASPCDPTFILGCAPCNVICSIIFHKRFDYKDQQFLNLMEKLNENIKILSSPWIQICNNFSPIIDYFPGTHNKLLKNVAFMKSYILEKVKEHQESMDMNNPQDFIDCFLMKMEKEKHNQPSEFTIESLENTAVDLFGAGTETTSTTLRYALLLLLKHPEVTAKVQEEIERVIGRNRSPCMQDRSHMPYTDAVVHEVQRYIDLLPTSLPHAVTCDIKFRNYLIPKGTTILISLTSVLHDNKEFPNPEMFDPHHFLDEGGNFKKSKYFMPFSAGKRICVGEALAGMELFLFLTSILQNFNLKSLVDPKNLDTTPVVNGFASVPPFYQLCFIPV

Estrogen receptor beta = Estrogen receptor beta (Homo sapiens, UniProt Q92731); conditions: sf9; also: in other assays of this panel Not Active means under 50% inhibition at 10 µM
Estrogen receptor beta, sequence (Q92731 whole entry): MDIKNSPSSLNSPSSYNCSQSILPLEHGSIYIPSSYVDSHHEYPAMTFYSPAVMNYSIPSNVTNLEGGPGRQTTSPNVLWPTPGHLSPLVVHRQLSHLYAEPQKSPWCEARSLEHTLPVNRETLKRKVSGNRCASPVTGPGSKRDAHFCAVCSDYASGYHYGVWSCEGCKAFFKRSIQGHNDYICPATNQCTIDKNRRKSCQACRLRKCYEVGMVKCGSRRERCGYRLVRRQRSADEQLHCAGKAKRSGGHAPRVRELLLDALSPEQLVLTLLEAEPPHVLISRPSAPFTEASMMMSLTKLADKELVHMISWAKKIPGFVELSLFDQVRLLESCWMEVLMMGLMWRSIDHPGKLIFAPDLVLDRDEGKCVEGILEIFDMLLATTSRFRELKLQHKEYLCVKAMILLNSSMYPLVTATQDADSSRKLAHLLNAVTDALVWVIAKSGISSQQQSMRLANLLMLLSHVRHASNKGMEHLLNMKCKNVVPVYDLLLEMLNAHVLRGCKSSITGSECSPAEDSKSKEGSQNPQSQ

N[C@H](CSC(=S)NCc1ccccc1)C(=O)O
Not Active: IC50 [1] | Ki [1] | IC50 (Endothelin-1 receptor) | IC50 [2] | Ki [2] | IC50 [3] | Ki [3] | IC50 (Insulin receptor) | IC50 [4] | Ki [4] | IC50 [5] | Ki [5] | IC50 [6] | IC50 (Caspase-1) | IC50 [7] | IC50 (Cytochrome P450 2C9) | Ki (Cytochrome P450 2C9) | IC50 (Estrogen receptor beta)

CC(=O)N[C@@H]1[C@H](Oc2c3cc4cc2Oc2ccc(cc2Cl)[C@@H](O[C@@H]2O[C@@H](CO)[C@@H](O)[C@H](O)[C@@H]2NC(C)=O)[C@@H]2NC(=O)[C@H](NC(=O)[C@@H]4NC(=O)[C@H]4NC(=O)[C@@H](Cc5ccc(c(Cl)c5)O3)NC(=O)[C@H](N)c3ccc(O)c(c3)Oc3cc(O)cc4c3)c3ccc(O)c(c3)-c3c(O[C@H]4O[C@H](CO)[C@@H](O)[C@@H](O)[C@@H]4O)cc(O)cc3[C@@H](C(=O)O)NC2=O)O[C@@H](CO)[C@@H](O)[C@@H]1O
Not Active: IC50 [1] | Ki [1] | IC50 (Endothelin-1 receptor) | IC50 [2] | Ki [2] | IC50 [3] | Ki [3] | IC50 (Insulin receptor) | IC50 [4] | Ki [4] | IC50 [5] | Ki [5] | IC50 [6] | IC50 (Caspase-1) | IC50 [7] | IC50 (Cytochrome P450 2C9) | Ki (Cytochrome P450 2C9) | IC50 (Estrogen receptor beta)

COCCCOc1ccnc(C[S+]([O-])c2nc3ccccc3[nH]2)c1C (stereo unspecified) [RABEPRAZOLE]
Not Active: IC50 [1] | Ki [1] | IC50 (Endothelin-1 receptor) | IC50 [2] | Ki [2] | IC50 [3] | Ki [3] | IC50 (Insulin receptor) | IC50 [4] | Ki [4] | IC50 [5] | Ki [5] | IC50 [6] | IC50 (Caspase-1) | IC50 [7] | IC50 (Cytochrome P450 2C9) | Ki (Cytochrome P450 2C9) | IC50 (Estrogen receptor beta)

CNC(=C[N+](=O)[O-])NCCSCc1ccc(CN(C)C)o1 [RANITIDINE]
Not Active: IC50 [1] | Ki [1] | IC50 (Endothelin-1 receptor) | IC50 [2] | Ki [2] | IC50 [3] | Ki [3] | IC50 (Insulin receptor) | IC50 [4] | Ki [4] | IC50 [5] | Ki [5] | IC50 [6] | IC50 (Caspase-1) | IC50 [7] | IC50 (Cytochrome P450 2C9) | Ki (Cytochrome P450 2C9) | IC50 (Estrogen receptor beta)

CO[C@H]1/C=C/O[C@@]2(C)Oc3c(C)c(O)c4c(c3C2=O)C2=NC3(CCN(CC(C)C)CC3)NC2=C(NC(=O)/C(C)=C\C=C\[C@H](C)[C@H](O)[C@@H](C)[C@@H](O)[C@@H](C)[C@H](OC(C)=O)[C@@H]1C)C4=O [RIFABUTIN]
Not Active: IC50 [1] | Ki [1] | IC50 (Endothelin-1 receptor) | IC50 [2] | Ki [2] | IC50 [3] | Ki [3] | IC50 (Insulin receptor) | IC50 [4] | Ki [4] | IC50 [5] | Ki [5] | IC50 [6] | IC50 (Caspase-1) | IC50 [7] | IC50 (Cytochrome P450 2C9) | Ki (Cytochrome P450 2C9) | IC50 (Estrogen receptor beta)

CC(C)CC(N(C)C)C1(c2ccc(Cl)cc2)CCC1 (stereo unspecified) [SIBUTRAMINE]
Not Active: IC50 [1] | Ki [1] | IC50 (Endothelin-1 receptor) | IC50 [2] | Ki [2] | IC50 [3] | Ki [3] | IC50 (Insulin receptor) | IC50 [4] | Ki [4] | IC50 [5] | Ki [5] | IC50 [6] | IC50 (Caspase-1) | IC50 [7] | IC50 (Cytochrome P450 2C9) | Ki (Cytochrome P450 2C9) | IC50 (Estrogen receptor beta)

[H]/N=C(/N)N[C@H]1[C@H](O)[C@@H](O)[C@H](O[C@@H]2O[C@@H](C)[C@](O)(C=O)[C@H]2O[C@@H]2O[C@@H](CO)[C@H](O)[C@@H](O)[C@@H]2NC)[C@@H](N/C(N)=N\[H])[C@@H]1O [STREPTOMYCIN]
Not Active: IC50 [1] | Ki [1] | IC50 (Endothelin-1 receptor) | IC50 [2] | Ki [2] | IC50 [3] | Ki [3] | IC50 (Insulin receptor) | IC50 [4] | Ki [4] | IC50 [5] | Ki [5] | IC50 [6] | IC50 (Caspase-1) | IC50 [7] | IC50 (Cytochrome P450 2C9) | Ki (Cytochrome P450 2C9) | IC50 (Estrogen receptor beta)

CN1C(C(=O)Nc2ccccn2)=C(O)c2sccc2S1(=O)=O [TENOXICAM]
Not Active: IC50 [1] | Ki [1] | IC50 (Endothelin-1 receptor) | IC50 [2] | Ki [2] | IC50 [3] | Ki [3] | IC50 (Insulin receptor) | IC50 [4] | Ki [4] | IC50 [5] | Ki [5] | IC50 [6] | IC50 (Caspase-1) | IC50 [7] | IC50 (Cytochrome P450 2C9) | Ki (Cytochrome P450 2C9) | IC50 (Estrogen receptor beta)

O=C1CCC(N2C(=O)c3ccccc3C2=O)C(=O)N1 (stereo unspecified) [THALIDOMIDE]
Not Active: IC50 [1] | Ki [1] | IC50 (Endothelin-1 receptor) | IC50 [2] | Ki [2] | IC50 [3] | Ki [3] | IC50 (Insulin receptor) | IC50 [4] | Ki [4] | IC50 [5] | Ki [5] | IC50 [6] | IC50 (Caspase-1) | IC50 [7] | IC50 (Cytochrome P450 2C9) | Ki (Cytochrome P450 2C9) | IC50 (Estrogen receptor beta)

Cc1cccc(Nc2ccncc2S(=O)(=O)NC(=O)NC(C)C)c1 [TORSEMIDE]
Not Active: IC50 [1] | Ki [1] | IC50 (Endothelin-1 receptor) | IC50 [2] | Ki [2] | IC50 [3] | Ki [3] | IC50 (Insulin receptor) | IC50 [4] | Ki [4] | IC50 [5] | Ki [5] | IC50 [6] | IC50 (Caspase-1) | IC50 [7] | IC50 (Cytochrome P450 2C9) | Ki (Cytochrome P450 2C9) | IC50 (Estrogen receptor beta)

CC(C)C[C@H](NC(=O)[C@@H](O)[C@H](N)Cc1ccccc1)C(=O)O [UBENIMEX]
Not Active: IC50 [1] | Ki [1] | IC50 (Endothelin-1 receptor) | IC50 [2] | Ki [2] | IC50 [3] | Ki [3] | IC50 (Insulin receptor) | IC50 [4] | Ki [4] | IC50 [5] | Ki [5] | IC50 [6] | IC50 (Caspase-1) | IC50 [7] | IC50 (Cytochrome P450 2C9) | Ki (Cytochrome P450 2C9) | IC50 (Estrogen receptor beta)

Cc1onc(-c2ccccc2)c1-c1ccc(S(N)(=O)=O)cc1 [VALDECOXIB]
Not Active: IC50 [1] | Ki [1] | Ki (Endothelin-1 receptor) | IC50 [2] | Ki [2] | IC50 [3] | Ki [3] | IC50 (Insulin receptor) | IC50 [4] | Ki [4] | IC50 [5] | Ki [5] | IC50 [6] | IC50 (Caspase-1) | IC50 [7] | IC50 (Cytochrome P450 2C9) | Ki (Cytochrome P450 2C9) | IC50 (Estrogen receptor beta)
